This is an account of results in ChEMBL document CHEMBL1201862, “PubChem BioAssay data set” (2004).

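Following 48 hours of exposure in 96-well plates, responses at five concentrations were used to interpolate endpoints linearly. GI50 is the concentration that inhibits growth by half.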 Activity calls are given as the source filed them. Rule as the data show it: active = GI50 up to about 1.1 µM and inactive = higher.

Test systems include TK-10; IGROV-1; COLO 205; A549; HL-60; OVCAR-4; NCI-H226; HCC 2998; SNB-75; 786-0; ACHN; HCT-15; HOP-62; HT-29; A498; SK-OV-3; SK-MEL-5.
Assay in all cases: NCI anticancer screen, dose series, 48 h

As to `Cc1cccc(C)c1N1C(=O)C(=O)C(c2nc3ccccc3s2)/C(=N\N)C1=O` (centres undefined), the GI50 in the test with TK-10 is > 100 µM (inactive); with IGROV-1 it was > 100 µM (inactive); with COLO 205, > 100 µM (inactive); with A549 it was > 100 µM (inactive); with HL-60 it was 36.3 µM (inactive); in the test on OVCAR-4, > 100 µM (inactive). Besides, the GI50 is > 100 µM (inactive) in the test on NCI-H226; > 100 µM (inactive) in the test with HCC 2998; > 100 µM (inactive) in the test with SNB-75; > 100 µM (inactive) with 786-0; 62.1 µM (inactive) with ACHN; above 100 µM in the test with HCT-15. The GI50 with HOP-62, with HT-29, with A498, in the test on SK-OV-3 and in the test with SK-MEL-5 was > 100 µM (inactive) each time.
Consider `CN(C)CCC[N+]1=Nc2cccc3cccc(c23)N1`, for which the GI50 in the test with TK-10 is 59.4 µM (inactive); in the test with IGROV-1 it was 31.4 µM (inactive); in the test with COLO 205, > 10 µM (inactive); in the test with A549, > 100 µM (inactive); with HL-60, 18.2 µM (inactive); in the test with OVCAR-4, 47.1 µM (inactive). Further, the GI50 was > 100 µM (inactive) with NCI-H226; 24.2 µM (inactive) in the test on HCC 2998; > 100 µM (inactive) in the test on SNB-75; 49.8 µM (inactive) with 786-0; 50.7 µM (inactive) in the test with ACHN; 39.3 µM with HCT-15. Further, the GI50 is > 100 µM (inactive) in the test with HOP-62; 33.6 µM (inactive) with HT-29; 27.4 µM (inactive) in the test on A498; > 100 µM (inactive) in the test on SK-OV-3; 14.1 µM (inactive) in the test with SK-MEL-5.
As for `CCOC(=O)C1N(S(=O)(=O)c2ccc(C)cc2)CCC12c1ccccc1NC2c1ccc(OC)c(OC)c1` (centres undefined), the GI50 in the test with TK-10 is > 100 µM (inactive); with IGROV-1, 14.6 µM (inactive); in the test on COLO 205, > 100 µM (inactive); with A549 it was > 100 µM (inactive); with HL-60 it was 27.7 µM (inactive); with OVCAR-4, > 100 µM (inactive). Further, the GI50 is > 100 µM (inactive) in the test with NCI-H226; > 100 µM (inactive) in the test on HCC 2998; > 100 µM (inactive) in the test on SNB-75; > 100 µM (inactive) in the test with 786-0; > 100 µM (inactive) in the test on ACHN; above 100 µM in the test on HCT-15. For the same compound, the GI50 in the test with HOP-62, in the test with HT-29, with A498, in the test with SK-OV-3 and in the test on SK-MEL-5 was > 100 µM (inactive) in each case.
As for `CC(C)(C)C1=CC(=C2C(=O)C(=O)c3ccccc3C2=O)C=C(C(C)(C)C)C1=O`, the GI50 in the test with TK-10 is 84.9 µM (inactive); in the test on IGROV-1 it was 24.1 µM (inactive); in the test with COLO 205 it was 42.1 µM (inactive); in the test with A549, > 100 µM (inactive); in the test on HL-60 it was 29.4 µM (inactive); in the test on HCC 2998 it was > 100 µM (inactive). The GI50 is > 100 µM (inactive) in the test with SNB-75; 34.5 µM (inactive) in the test on 786-0; 83.9 µM (inactive) with ACHN; 35.5 µM in the test on HCT-15; > 100 µM (inactive) in the test on HOP-62; > 100 µM (inactive) in the test with HT-29. In addition, the GI50 with A498 was < 0.01 µM (active); with SK-OV-3, > 100 µM (inactive); with SK-MEL-5, 48.5 µM (inactive).
Consider `O=C1C=C(O)C(=Cc2c(O)cc(O)cc2O)C(O)=C1`, for which the GI50 with TK-10, with IGROV-1, in the test on COLO 205, in the test with A549, in the test on HL-60 and in the test with OVCAR-4 was > 100 µM (inactive) throughout. For the same compound, the GI50 in the test with NCI-H226 is > 100 µM (inactive); in the test on HCC 2998 it was > 100 µM (inactive); with SNB-75, > 100 µM (inactive); in the test on 786-0 it was > 100 µM (inactive); with HCT-15 it was above 100 µM; in the test on HOP-62, > 100 µM (inactive). Besides, the GI50 with HT-29, with A498, in the test on SK-OV-3 and in the test with SK-MEL-5 was > 100 µM (inactive) each time.
Take `CCOC(=O)C(OCC1CC=CCC1)Sc1ccccc1` (centres undefined): the GI50 with TK-10, in the test on IGROV-1, with COLO 205, with A549, with HL-60 and in the test on HCC 2998 was > 100 µM (inactive) throughout. For the same compound, the GI50 was > 100 µM (inactive) in the test on SNB-75; > 100 µM (inactive) in the test on 786-0; > 100 µM (inactive) in the test on ACHN; above 100 µM in the test with HCT-15; > 100 µM (inactive) with HOP-62; > 100 µM (inactive) with HT-29. In addition, the GI50 in the test on A498, in the test with SK-OV-3 and in the test on SK-MEL-5 was > 100 µM (inactive) throughout.
As for `C#Cc1ccccc1N1C(=O)C=CC1=O`, the GI50 in the test with TK-10, in the test on IGROV-1, in the test on COLO 205, in the test on A549, in the test on HL-60 and in the test on OVCAR-4 was > 100 µM (inactive) in each case. In addition, the GI50 with NCI-H226, in the test on SNB-75, with 786-0, with ACHN, in the test with HOP-62 and in the test on HT-29 was > 100 µM (inactive) in each case. The GI50 in the test on A498, in the test on SK-OV-3 and in the test with SK-MEL-5 was > 100 µM (inactive) in each case.
For the compound `O=C(Nc1nc2ncn(CCO)c2c(=S)[nH]1)c1ccccc1`, the GI50 with TK-10, with IGROV-1, with COLO 205, with A549, with HL-60 and in the test with OVCAR-4 was > 100 µM (inactive) each time. Besides, the GI50 in the test with NCI-H226 was > 100 µM (inactive); in the test on SNB-75 it was > 100 µM (inactive); in the test on 786-0, > 100 µM (inactive); with ACHN, > 100 µM (inactive); in the test with HCT-15, above 100 µM; in the test with HOP-62, > 100 µM (inactive). For the same compound, the GI50 in the test with HT-29, in the test with A498, in the test with SK-OV-3 and with SK-MEL-5 was > 100 µM (inactive) throughout.
Take `C/C(=N\NC(N)=S)c1ccc(C)cc1C`: the GI50 in the test on TK-10 was > 100 µM (inactive); in the test with IGROV-1 it was 48.8 µM (inactive); with COLO 205, 55.8 µM (inactive); with A549 it was 53.5 µM (inactive); in the test with HL-60 it was 36 µM (inactive); in the test with OVCAR-4 it was 84.5 µM (inactive). Further, the GI50 is > 100 µM (inactive) in the test on NCI-H226; > 100 µM (inactive) in the test on HCC 2998; 47.5 µM (inactive) in the test with SNB-75; > 100 µM (inactive) in the test on 786-0; > 100 µM (inactive) with ACHN; above 100 µM in the test on HCT-15. Also, the GI50 in the test on HOP-62 is > 100 µM (inactive); in the test with HT-29 it was 28.6 µM (inactive); with A498, > 100 µM (inactive); in the test with SK-OV-3, > 100 µM (inactive); in the test with SK-MEL-5, 21.7 µM (inactive).
With `C1OC1CN1CCN(CC2CO2)CC1` (centres undefined), the GI50 in the test with TK-10 was > 100 µM (inactive); in the test with IGROV-1, > 100 µM (inactive); in the test on COLO 205, > 100 µM (inactive); in the test on A549, 17.5 µM (inactive); with HL-60 it was 4.85 µM (inactive); in the test with OVCAR-4, > 100 µM (inactive). For the same compound, the GI50 in the test on NCI-H226 is > 100 µM (inactive); in the test on HCC 2998 it was > 100 µM (inactive); in the test with SNB-75, 38.2 µM (inactive); in the test on 786-0, 35.3 µM (inactive); with ACHN it was 12.4 µM (inactive); with HCT-15, above 100 µM. Also, the GI50 in the test on HOP-62 is 24.2 µM (inactive); with HT-29, > 100 µM (inactive); with A498, > 100 µM (inactive); with SK-OV-3 it was > 96.8 µM (inactive); with SK-MEL-5, > 100 µM (inactive).
For `Nc1ccc2n[se]nc2c1`, the GI50 in the test on TK-10 is 23.8 µM (inactive); in the test with IGROV-1, > 100 µM (inactive); with A549 it was > 100 µM (inactive); with HL-60, 42.4 µM (inactive); in the test with OVCAR-4, > 100 µM (inactive); in the test with HCC 2998 it was > 100 µM (inactive). The GI50 was > 100 µM (inactive) in the test on SNB-75; > 100 µM (inactive) in the test on 786-0; > 100 µM (inactive) with ACHN; above 100 µM with HCT-15; > 100 µM (inactive) with HOP-62; > 100 µM (inactive) in the test on HT-29. In addition, the GI50 in the test on A498, with SK-OV-3 and in the test on SK-MEL-5 was > 100 µM (inactive) in each case.
As for `O=C1C=C2CCCC2C(C(=O)O)(C(=O)O)C1` (centres undefined), the GI50 in the test with TK-10, in the test on IGROV-1, with COLO 205, in the test on A549, in the test on HL-60 and in the test with OVCAR-4 was > 100 µM (inactive) in each case. Further, the GI50 is > 100 µM (inactive) in the test on HCC 2998; > 100 µM (inactive) in the test with SNB-75; > 100 µM (inactive) with 786-0; above 100 µM in the test on HCT-15; > 100 µM (inactive) in the test with HOP-62; > 100 µM (inactive) with HT-29. Also, the GI50 in the test on A498, in the test with SK-OV-3 and in the test with SK-MEL-5 was > 100 µM (inactive) in each case.
For `COC1[C@H](NC(=O)OC(C)(C)C)C(=O)N1Cc1ccccc1` (some centres undefined), the GI50 with TK-10, with IGROV-1, in the test with COLO 205, in the test with A549, with HL-60 and in the test on OVCAR-4 was > 100 µM (inactive) throughout. The GI50 with NCI-H226 was > 100 µM (inactive); with HCC 2998 it was > 100 µM (inactive); in the test on SNB-75, > 100 µM (inactive); in the test on 786-0, > 100 µM (inactive); with ACHN, > 100 µM (inactive); in the test on HCT-15, above 100 µM. Also, the GI50 with HOP-62 is > 100 µM (inactive); in the test on HT-29, > 100 µM (inactive); with A498, 9.53 µM (inactive); in the test with SK-OV-3, > 100 µM (inactive); with SK-MEL-5, > 100 µM (inactive).
